In patent US20250302804A1, “RESOMELAGON AND ITS DERIVATIVES FOR THE TREATMENT OF CARDIOVASCULAR DISEASE, HYPERTENSION AND ATHEROSCLEROSIS” (SYNACT PHARMA ApS, priority 2022, published 2025):

Tests used:
[1] = system: macrophages; conditions: cited from earlier work
[2] = system: peritonitis; conditions: oral; cited from earlier work
[3] = system: early rheumatoid arthritis (RA) patients with active joint disease; assay: Phase IIa placebo-controlled study in early rheumatoid arthritis patients: CDAI; assay type: in vivo, human; conditions: for CDAI group mean, Baseline / CDAI group mean, Screening / CDAI group mean, Week 4 / CDAI group mean, Week 2 / CDAI group mean, Week 5 / CDAI Difference / CDAI Difference in %: n = 31; for CDAI group mean, Baseline / CDAI group mean, Screening: before treatment; for CDAI group mean, Week 4: end of treatment; for CDAI group mean, Week 2: mid-treatment; for CDAI group mean, Week 5: one week follow-up after last dosage; for CDAI Difference / CDAI Difference in %: week 4 vs baseline
Protocol: (§1) The study population will consist of newly diagnosed subjects with severe active RA (CDAI (Clinical disease activity score)>22) who are to start up-titration with methotrexate (MTX).
The doses used in this Example are calculated based on the specific acetate salt form.
The study population will consist of newly diagnosed subjects with severe active RA (CDAI >22) who are to start up-titration with MTX. A minimum of 90 subjects are expected to complete the study; plus 45 subjects from Bulgaria and/or Moldova for a sub-study. Up to 120 subjects are planned to be enrolled to account for discontinuation rate, and up to 60 subjects for the sub-study.
The CDAI is a clinical composite score for following patients with RA.
Descriptive changes in CDAI where CDAI=SJC (28)+TJC (28)+PGA+IGA; • SJC (28): Swollen 28-Joint Count (shoulders, elbows, wrists, MCPs, PIPs including thumb IP, knees); • TJC (28): Tender 28-Joint Count (shoulders, elbows, wrists, MCPs, PIPs including thumb IP, knees); • PGA: Patient Global Disease Activity (patient's self-assessment of overall RA disease activity on a scale 0-100 where 100 is maximal activity); • IGA: Physician's Global Disease Activity (evaluator's assessment of the subject's overall RA disease activity on a scale 0-100 where 100 is maximal activity)
The CDAI will be scored at screening, baseline, after 2 weeks and 4 weeks treatment, and at the final visit (one week after final dose).

[4] = system: MC3R; conditions: cited from earlier work
[5] = system: acute peritonitis induced by zymosan A in mice; assay: Zymosan A-induced acute peritonitis in mice: IL-1β, IL-6 and neutrophil accumulation; assay type: in vivo; conditions: 1 mg/kg intraperitoneal 30 minutes before zymosan, 12 hours, N=6
Protocol: Acute peritonitis was induced by the injection of 1 mg zymosan A (Sigma-Aldrich) i.p. in 0.5 ml sterile PBS in mice. Twelve hours later the mice were sacrificed by CO2 exposure, and peritoneal cavities were washed with 4 ml ice-cold PBS containing 3 mM EDTA. Cells were stained with Turk's solution (0.01% crystal violet in 3% acetic acid) and counted using a Neubauer hemocytometer or were stained with FITC-conjugated mAb for Ly-6G/Gr1, F4/80, and corresponding isotype controls (eBioscience, Hatfield, U.K.), and subjected to flow-cytometry analysis using a BD FACSCalibur platform (BD Biosciences, Oxford, U.K.). Levels of IL-1B and IL-6 in quick frozen samples were quantified according to the manufacturer's instructions using ELISA Ready-SET-Go! (eBioscience). All animal studies were approved by and performed under the guidelines of the Ethical Committee for the Use of Animals, Barts and The London School of Medicine and Home Office regulations (Guidance on the Operation of Animals, Scientific Procedures Act, 1986). Male (7-8 wk old) C57BL/6J wild-type (WT) mice were purchased from Charles River Laboratories. Test Item A, 1 mg/kg or vehicle treatment were given intraperitoneal 30 minutes before induction of the acute peritonitis. N=6 for in both groups.

[6] = system: melanocytes; conditions: cited from earlier work
[7] = system: experimental inflammatory arthritis; conditions: oral; cited from earlier work
[8] = Phase IIa study in early RA patients: blood pressure and clinically notable vital sign abnormalities; assay type: in vivo, human; conditions: for MAP Average/Median: MAP = DAP + ⅓(SAP − DAP); for CNA (clinically notable vital sign abnormalities): SAP ≥160, <90, DAP ≥105, <50
Description: as §1
Safety measures (AEs, SAEs, including laboratory abnormalities and vital signs such as blood pressure) will be registered during the whole study duration.

[9] = system: MC1R; conditions: cited from earlier work
[10] = Phase I repeated dose study, peak and trough concentrations at steady conditions; assay type: in vivo, human; conditions: 200 mg once daily
[11] = 50 mg AP1189 once daily plus MTX
[12] = 100 mg AP1189 once daily plus MTX

## NC(N)=N/N=C/C=C/c1cccn1-c1ccccc1[N+](=O)[O-] [AP1189, (E)-N-trans-{3-[1-(2-nitrophenyl)-1H-pyrrol-2-yl]-allylidene}-aminoguanidium acetate]
[1]
  cytokine release: reduce cytokine release
[2]
  anti-inflammatory action in peritonitis: elicits anti-inflammatory actions
[3]; [11]
  CDAI group mean, Baseline: 36.1
  CDAI group mean, Screening: 35.6
  CDAI group mean, Week 4: 24.2
  CDAI group mean, Week 2: 29.9
  CDAI group mean, Week 5: 22.9
  CDAI Difference: −11.9
  CDAI Difference in %: 33%
[3]; [12]
  CDAI group mean, Baseline: 39
  CDAI group mean, Screening: 38.9
  CDAI group mean, Week 4: 23.9
  CDAI group mean, Week 2: 28.9
  CDAI group mean, Week 5: 21.3
  CDAI Difference: −15.1
  CDAI Difference in %: 39%
[3]; both tested dosages, 50 mg and 100 mg
  effect in reducing CDAI: significant effect
[4]; MC3R
  ERK1/2 phosphorylation: cause ERK1/2 phosphorylation
  canonical cAMP generation: does not induce canonical CAMP generation
[4]
  agonist character at MC3R: biased agonist
[5]
  reduction of neutrophil accumulation compared to pretreatment with vehicle: 70%
[5]; p<0.05 vs vehicle
  reduction of IL-1β levels compared to pretreatment with vehicle: 37%
  reduction of IL-6 levels compared to pretreatment with vehicle: 59%
[6]
  melanogenesis: no melanogenesis was induced
[7]
  macroscopic and histological parameters of joint disruption: significant reduction
[8]; 50 mg AP1189, 4 Weeks, n 33
  DAP Average/Median: 79.9 mmHg
  SAP Average/Median: 129.1 mmHg
  MAP Average/Median: 96.3 mmHg
  CNA (clinically notable vital sign abnormalities): 2 (6%)
[8]; 50 mg AP1189, Base Line, n 33
  DAP Average/Median: 80.0 mmHg
  SAP Average/Median: 131.3 mmHg
  MAP Average/Median: 97.1 mmHg
  CNA (clinically notable vital sign abnormalities): 4 (11%)
[8]; 50 mg AP1189 group
  decrease in DAP after 4 weeks treatment: 0.1 mmHg
  decrease in MAP after 4 weeks treatment: 0.8 mmHg
  decrease in SAP after 4 weeks treatment: 2.2 mmHg
[8]; 100 mg AP1189, 4 Weeks, n 34
  DAP Average/Median: 80.3 mmHg
  SAP Average/Median: 126.8 mmHg
  MAP Average/Median: 95.8 mmHg
  CNA (clinically notable vital sign abnormalities): 1 (3%)
[8]; 100 mg AP1189, Base Line, n 34
  DAP Average/Median: 81.1 mmHg
  SAP Average/Median: 129.9 mmHg
  MAP Average/Median: 97.4 mmHg
  CNA (clinically notable vital sign abnormalities): 4 (11%)
[8]; 100 mg AP1189 group
  decrease in DAP after 4 weeks treatment: 0.8 mmHg
  decrease in MAP after 4 weeks treatment: 1.6 mmHg
  decrease in SAP after 4 weeks treatment: 3.1 mmHg
[8]; both treatment groups (50 mg and 100 mg), 4 weeks, no change in placebo group
  number of observed abnormalities in blood pressure: reduced
[9]; MC1R
  ERK1/2 phosphorylation: cause ERK1/2 phosphorylation
  canonical cAMP generation: does not induce canonical CAMP generation
[9]
  agonist character at MC1R: biased agonist
[10]
  C Trough (Mean +/− SD, N = 9): 186 ± 45 ng/mL
